Take `C#CC(Oc1cc(C(=O)OC)cc(OC)c1OC)C1CC1` (configuration not stated): the melting point (usually the temperature of the solid-liquid transition) lay within 93 to 94 °C.

`CCOC(=O)Cc1ccc(-n2cccn2)cc1`: the melting point stood at 49 °C.

`CCOc1cc(CO)cc(OCc2nc(-c3ccccc3)oc2C)c1`: the melting point fell in the range of 103 to 104 °C.

In the case of `O=c1[nH]c(-c2ccccn2)c(I)c(=O)n1-c1ccc(OC(F)(F)F)cc1`, the melting point is 215 to 217 °C.

`COC(=O)CN1CCN(CC(=O)OC)[C@@H](C(N)=O)[C@H]1C(N)=O`: the melting point lay within 172 to 173 °C.

With `CNC(=O)c1ccccc1C(O)c1ccc(F)cc1` (configuration not stated), the melting point fell in the range of 133 to 134 °C.

`Nc1sc2c(c1C(=O)c1ccc3c(c1)Cc1ccccc1-3)CCN(Cc1ccccc1)C2` came in with a melting point of 197 to 200 °C.

For the compound `CC1(C)CCC(O)(CCN2C(=O)CSC2CCCc2ccc(C(=O)O)cc2)CC1` (configuration not stated), the melting point lay within 142 to 143 °C.

Compound `CCc1noc(-c2cn(-c3c[nH]c4ccccc34)cn2)n1` yielded a melting point of 198 to 199 °C.

Turning to `COc1ccc(C(=O)N2c3ccccc3C(N3CCCc4cc(C)ccc43)CC2C)cc1OC` (configuration not stated), the melting point lay within 139 to 140 °C.

`N#Cc1cc(N)ccc1NC(=O)c1ccc(N)cc1` returned a melting point of 242 to 244 °C.

As for `CNc1nc(-c2cccc(NC(=O)c3ccnc(Cl)c3)c2)c2cc(OC)c(OC)cc2n1`, the melting point lay within 151 to 153 °C.

Consider `Cc1nc2c3c(c(C(=O)N(C)C)cc2[nH]1)CCC1(Cc2ccccc2C1)N3`, for which the melting point was 183 °C.

The compound `CC(=O)OC(Cn1cncn1)(c1ccc(F)cc1F)C1(S(=O)(=O)Cl)CC1` (racemic) came in with a melting point of 163 to 165 °C.

`O=C1N(Cc2ncccc2C(F)(F)F)c2ccccc2C12COc1c(Cl)cc3c(c12)OCCO3` (configuration not stated) yielded a melting point of 273 to 275 °C.

Turning to `CCCn1c(=S)sc2c(=N)n(NC(=O)c3ccco3)cnc21`, the melting point turned out to be 206 °C.

Regarding `COc1ccc2c(C3=C(c4cn(C)c5cc([N+](=O)[O-])ccc45)C(=O)NC3=O)cn(C)c2c1`, the melting point lay within 308 to 310 °C.

Turning to `NC(=O)C(c1ccccc1)(c1ccccc1)c1ccc(N)cn1`, the melting point was 215 to 220 °C.

In turn, `C[C@@H](n1ncn(-c2ccncc2)c1=O)[C@@]1(c2ccc(F)cc2F)CO1` registered a melting point of 96 to 97 °C.

As for `O=C(O)COc1cccc(CCn2ncc(-c3ccccc3)c2-c2ccccc2)c1`, the melting point is 133 to 138 °C.

The compound `CCc1cccc(CC)c1NCC(=O)NC(=S)NNC` registered a melting point of 166 °C.

For the compound `Nc1nc2ccc(OC(F)(F)F)c([N+](=O)[O-])c2s1`, the melting point was determined as 180 °C.

Take `Cc1ccc2[nH]c(-c3ccccc3)cc(=O)c2c1`: the melting point was 290 to 292 °C.

In the case of `Cc1cc(O)c([N+](=O)[O-])cc1C(=O)c1c(Cl)cccc1Cl`, the melting point turned out to be 170 °C.

In turn, `O=C1CN(Cc2cnc(-c3ccc(C(CC4CCOCC4)c4ccc(S(=O)(=O)C5CC5)cc4)[nH]3)s2)C(=O)N1` (configuration not stated) yielded a melting point of 184 to 185 °C.

The compound `CC(=O)N[C@@H](C)c1ccc(CCl)cc1` returned a melting point of 114 to 116 °C.

As for `O=c1c2cc(F)c(F)cc2n(-c2ccc(F)c(Cl)c2)c(=O)n1OCc1ccccc1`, the melting point lay within 184 to 186 °C.

As for `CCCN1C(=O)C2CC(c3ccc(N(C)C)cc3)(C2)C1=O`, the melting point is 134 to 135 °C.

`CCCc1c(OCCCOc2ccc(C(=O)OCCCN(C)C)cc2Br)ccc(C(C)=O)c1O`: the melting point was in the range of 71 to 72 °C.

With `CC(=O)c1ccc(Oc2ccc(Cl)cc2)cc1`, the melting point lay within 66 to 68 °C.

On to `CC1(C)CN(C2CCN(c3cc(Cl)cc(Cl)c3)C2=O)C1=O` (configuration not stated), for which the melting point is 185 to 186 °C.

With `O=S(=O)(c1ccccc1F)n1ccc2c(OCc3ccccc3)cccc21`, the melting point lay in the range of 117 to 120 °C.

On to `CC1(C)OC(c2ccc(S(C)(=O)=O)cc2)=C(c2ccc3c(c2)OCO3)C1=O`, for which the melting point was in the range of 178 to 179 °C.

Compound `O=Cc1cc(C(=O)c2ccccc2)ccc1[N+](=O)[O-]` had a melting point of 96.7 °C.

For the compound `COc1cc(Nc2ccnc(Nc3cc(OC)c(OC)c(OC)c3)n2)cc(OC)c1OC`, the melting point came out at 180 °C.

Compound `Cc1cc(-c2nc3cccnn3c2-c2ccnc(NC(=O)c3ccc(OC(F)(F)F)cc3)c2)ccc1F` showed a melting point of 225 to 226 °C.

For the compound `N#Cc1ccc2nc(C(F)(F)F)[nH]c2c1`, the melting point fell in the range of 194 to 196 °C.

Compound `C=CCCCCOc1ccc(OCCCCC=C)cc1` registered a melting point of 29 to 30 °C.

On to `COc1cc2c(cc1Nc1ncc(Cl)c(Nc3ccc(OC)c4c3C(=O)N(C)C4)n1)CCN(CC(=O)N(C)C)CC2`, for which the melting point lay in the range of 202 to 203 °C.

Compound `CC(=O)C(=NNc1ccccc1)C(=O)N(C(C)C)C(C)C` showed a melting point of 143 to 145 °C.

Take `O=C(Nc1cccc(Nc2ccc3c(c2)NC(=O)C3=Cc2ccc[nH]2)c1)Nc1cc(F)c(F)cc1F`: the melting point was 224 to 226 °C.

In turn, `Fc1ccccc1CO[C@H]1CO[C@@H](c2ccccc2)OC1` registered a melting point of 65 to 67 °C.

Consider `CCOC(=O)COc1ccc(Cn2c(-c3ccc(C(F)(F)F)cc3)c(C)c3cc(OCc4ccccc4)ccc32)cc1`, for which the melting point was 221 °C.

With `O=C1C2CCCC2=Nc2ccccc2N1Cc1ccccc1F` (configuration not stated), the melting point was 135 to 137 °C.

Take `Cc1cc(OCCCN2CCC[C@H]2C)ccc1C1=NNC(=O)CC1`: the melting point was in the range of 121 to 123 °C.

`Cc1ccc(Cc2cnc(Cl)nc2OC(C)C)cn1` had a melting point of 38 to 42 °C.

`C/C(Br)=C(\Br)c1cn(-c2c(Cl)cc(C(F)(F)F)cc2Cl)nc1C#N` registered a melting point of 134 to 135 °C.

The compound `CCOC(=O)c1c(C)cc2c(c1C)c(=O)n(-c1ccccc1Cl)c(=O)n2CC(=O)NCCN(CC)CC` came in with a melting point of 193 to 194 °C.

Take `CCCCCCCCC1OC(=O)c2cc(NC(C)=O)ccc21` (configuration not stated): the melting point is 133 to 134 °C.

In the case of `O=C1OCCN1c1ccc(F)c([N+](=O)[O-])c1`, the melting point was determined as 135 °C.

On to `CC1(C)CC(=O)c2c(S(C)(=O)=O)sc(C(=O)N3CCCC3)c2C1`, for which the melting point amounted to 161 °C.

Consider `N#Cc1cccc(Oc2ccnc(Cl)c2)n1`, for which the melting point turned out to be 114 °C.

`Cc1nc2c(NCc3c(C)cccc3C)cc(C(=O)N(C)C)cc2[nH]1`: the melting point is 203 °C.

`O=C1CCCC(C(=O)c2ccc(Cc3ccc(F)cc3)o2)=C1O` displayed a melting point of 133 to 134 °C.

Consider `FC(F)Sc1ccc(-c2ccccc2)cc1`, for which the melting point is 56 to 57 °C.

Compound `CCCCCCCCCCCCCCCCCC1OCC(COC(O)CCC)O1` (configuration not stated) registered a melting point of 34 to 44 °C.

In turn, `COc1cc(-c2ccc([N+](=O)[O-])cn2)cc(OC)c1OC` had a melting point of 134 to 136 °C.

`CCc1ccc(C(=O)c2ccc(F)cc2)c(O)c1` came in with a melting point of 44 to 48 °C.

With `CC(F)(F)c1cccc(C[C@@H](NC(=O)c2ccc(F)c3ccccc23)[C@@H](O)c2ccc(F)cc2)c1` (racemic), the melting point was 182 to 183 °C.

In turn, `O=S(=O)(c1ccc(O)cc1)N1c2ccccc2-c2ccccc2C1c1ccccc1` (configuration not stated) returned a melting point of 210 to 212 °C.

As for `O=C1NCC2CC1c1ccccc12` (configuration not stated), the melting point is 172 to 173 °C.

In turn, `Cc1ccc(C(=O)Nc2c(NC(=O)CN3CCSCC3)ccc3c2C(=O)c2ccccc2C3=O)cc1` yielded a melting point of 210 to 211 °C.

These data come from a melting point compilation (Tetko et al.; mined from patent text by program, amines drawn as free bases though some values may be those of a salt).
